Test results from patent US20120329798A1, “METHODS AND COMPOSITIONS FOR TREATING LUEKEMIA” (priority 2009, published 2012).
Where a name gives a salt, the structure may show the parent alone.

What was measured:
[1] = system: primary CD34+ CP CML cells; experiment: Colony forming assay and serial re-plating of primary CML cells; assay type: cell-based, human; conditions: for proliferation index (PI) of re-plated colonies (AUC): 3d nilotinib and/or compound A exposure, 132 colonies per arm, compared to untreated cells, FIG. 7
Method: Primary cells were obtained from newly diagnosed and untreated patients with CML in chronic phase. These cells were enriched for CD34+using magnetic-activated cell sorting prior to cryopreservation in 10% DMSO and 4% human albumin solution in liquid nitrogen. Samples were thawed and washed in a solution of DNAse, human albumin solution, magnesium chloride, and phosphate buffered saline. Upon thaw primary cells were cultured in a serum free medium comprising of Iscove's Modified Dulbecco Medium with bovine serum albumin, insulin, transferring, P2 mercaptoethanol and growth factors (100 ng/mL Flt3-ligand, 100 ng/mL stem cell factor, 20 ng/mL interleukin (IL)-3, IL-6 and 50 ng/mL granulocyte-colony stimulating factor) for 24 hours.
Viable cells were enumerated using trypan blue dye exclusion and set up in culture in serum free medium (SFM) with the stated concentrations of Compound A and/or nilotinib. Following 72 hours (h) culture the cells were washed twice in phosphate buffered solution (PBS) and viable cells counted, again by trypan blue exclusion. These cells were then used for a series of colony forming and re-plating assays.
In the colony forming assay (CFA) a single cell suspension is created in semisolid media with appropriate cytokines. This enables the assessment of colony formation from each individual cell. In order to measure the effect of compound A and/or nilotinib on the relative abundance of CD34+ CP CML progenitor cells, CFA were set up in METHOCULT with cells plated at an initial concentration of 4000 cells per mL in duplicate. Colonies were identified and enumerated 14-16 days (d) following plating.
An accepted in vitro technique to approximate self-renewal activity is serial re-plating. Colonies derived from a CFA are individually plucked and re-dispersed in further METHOCULT. The capacity to reform colonies following re-dispersion is related to the number of primitive progenitors remaining within each individual colony and is therefore an indirect measurement of self-renewal. Following CFA 20-30 individual non-erythroid colonies from each experimental arm were then plucked with a p10 pipettor (one tip per colony using an inverted microscope) and carefully dispersed into 100 μL METHOCULT with a further 10 μL SFM in 96 well plates prior to incubation for a further 7d. Resultant secondary colonies were enumerated in each well and; in the case of wells containing secondary colonies; the entire contents were re-dispersed in a further 100 μL METHOCULT to assess tertiary colony formation.
Colony assays were performed in METHOCULT with cells plated at an initial concentration of 4000 cells per mL in duplicate. Colonies were identified and enumerated 14-16 days (d) following plating. […]

[2] = system: mouse bone marrow cells infected with Bcr-abl retrovirus; experiment: Methylcellulose colony formation and re-plating of Bcr-Abl infected bone marrow cells; assay type: cell-based; conditions: 72 h pre-treatment; for colony formation in the first methylcellulose plating: compared to control DMSO group, FIG. 8
From the text: Colony formation was scored 10 days after plating.
FIG. 9. Colonies obtained in the 1st plating experiment of FIG. 8 were resuspended and washed in PBS containing 10% FCS. Cells were resuspended in OPTI-MEM media and plated in methylcellulose at a concentration of 5000 cells per 35 mm plate. Colony formation was scored 10 days after plating.
Mouse bone marrow cells were infected with a bicistronic retroviral Bcr-Abl vector (Bcr-Abl-IRES-GFP). […] Clonogenic colony formation assays assess the self-renewal capacity of early progenitor/stem cells.

[3] = system: bone marrow transplant model of Bcr-Abl to induce CML in mice; experiment: Bone marrow transplant model of Bcr-Abl induced CML, survival; assay type: in vivo, mouse; conditions: groups of 8 mice; two week treatment; compound A 80 mg/kg po qd, AMN107 75 mg/kg po qd or combination; FIG. 10
Method: A bone marrow transplant model of Bcr-Abl was used to induce CML in mice. Briefly, a bicistronic retroviral Bcr-Abl vector (Bcr-Abl-IRES-GFP) was used to produce virus to infect progenitor bone marrow (BM) cells collected from mice previously treated with 5-FU. After 3 rounds of infection, 200,000 GFP positive progenitor BM cells were transplanted into lethally irradiated hosts. Two weeks post-BMT, peripheral blood samples were analyzed by FACS analysis to establish the percentage of GFP positive cells present in the recipient mice. […] During the entire study period the mice were followed for any sign of leukemia development, such as hunched position, lost of body weight or inability of grooming. The animals were sacrificed when they reached any of the previously described signs.

[4] = system: CML; conditions: standard of therapy for CML; cited from earlier work

Row | SMILES | re-plating capacity (total secondary and tertiary colonies as percentage of untreated control) ([1]; 72 h culture with drug, first and second re-plate, FIG. 1 and 2) | proliferation index (PI) of re-plated colonies (AUC) ([1]; 4 experiments) | colony number upon secondary re-plating of the colonies ([2]; FIG. 9) | colony formation in the first methylcellulose plating [2] | number of animals sacrificed to date [3] | response rates [4] | re-plating capacity (total number of secondary colonies) ([1]; 3d exposure, Compound A 10 nM and/or nilotinib 5 μM, 4 experiments, FIG. 6)
1 | Cc1c(C(=O)Nc2ccc(N3C[C@@H](C)O[C@@H](C)C3)nc2)cccc1-c1ccc(OC(F)(F)F)cc1 [Compound A, 2-Methyl-4′-trifluoromethoxy-biphenyl-3-carboxylic acid [6-(cis-2,6-dimethyl-morpholin-4-yl)-pyridin-3-yl]-amide] | reduction in re-plating capacity | reduction in PI | pronounced reduction in colony number | No reduction of colony formation | all |  | 
2 | Cc1ccc(NC(=O)c2ccc(CN3CCN(C)CC3)cc2)cc1Nc1nccc(-c2cccnc2)n1 [Imatinib mesylate] |  |  |  |  |  | more than 96% | 
3 | Cc1cn(-c2cc(NC(=O)c3ccc(C)c(Nc4nccc(-c5cccnc5)n4)c3)cc(C(F)(F)F)c2)cn1 [nilotinib] |  | relative increase in PI |  | No reduction of colony formation | 5 |  | non-significant increase in re-plating capacity
